One test has as its target T1, Cdc42 WT (Homo sapiens, UniProt P60953).
T1 construct: purchased Cytoskeleton
In words: Bead-based flow cytometry dose response, BODIPY-FL-GTP binding. The following applies: for EC50: read-out: Cdc42 WT EC50; for Emax: read-out: Cdc42 WT Efficacy. On the procedure:
(§1) Bead sets for multiplex assays were custom synthesized by Duke Scientific Corp (Fremont, Calif.), but may now be ordered from Thermo/Fisher. […] Negative controls, contained the bead mixture with fluorescent GTP, 0.5 mM unlabeled GTP as a competitor, and 1% DMSO. […] The resulting time-dependent data (one file per plate) were analyzed using IDLQuery software to determine the compound activity in each well. Gating based on forward scatter (FS) and side scatter (SS) parameters was used to identify singlet bead populations. Gating based on FL8 emission distinguishes the beads coated with different proteins, and the median fluorescence per bead population was calculated. […] Baselines were set to 100% based on measurements from the 1% DMSO containing positive controls as further described in PubChem. {PubChem #72}
(§2) Briefly, compounds were serially diluted 1:3 a total of eight times from a starting concentration of 10 mM giving a 9-point dilution series in DMSO. The final concentrations of inhibitors in the assay ranged from 10 nM to 100 μM. Dose-response analyses were examined in the presence of NP-HPS buffer containing: a) 1 mM EDTA; or b) 1 mM MgCl2. […] For assays with EDTA we used one multiplex (Rab7 wt, Rab2 wt, H-Ras wt, H-RasG12V, Cdc42 wt, and Cdc42Q61L) and 3 single-plexes (for Rac1 wt, Rac1 Q61L and GST-GFP).
(§3) GTPase activators were identified on the basis of an increase in fluorescent GTP-binding.
(§4) In experiments including magnesium, six GST-GTPases were assayed simultaneously in a single multiplex (Rac1 wt, Rac1Q61L, RhoA wt, RhoAL63, Cdc42 wt and Cdc42Q61L) and 1 nM BODIPY-FL-GTP binding was measured in the presence or absence of the serial drug dilution series. Each dose response series was run in duplicate.

For another test, the target named is Cdc42 ACT (Cdc42Q61L) (Homo sapiens, UniProt P60953, Q61L). Described as above. Here is the method:
as §1, §2, §3, §4

Test [1] has as its system Cdc42, Rab2, Rab7, activated Rac1Q61L, Rac1, and H-Ras. Briefly: Multiplexed primary screen, fluorescent GTP binding. The following applies: 10 μM compound. On the procedure:
Multiplex screening was performed by measuring GTP-binding activities of six GTPases (Cdc42, Rab2, Rab7, activated Rac1Q61L, Rac1, and H-Ras) simultaneously using special glutathione (GSH) bead sets having varied fluorescence intensities at a fixed wavelength^38. Individual GST-GTPase chimeras were tested against approximately 200,000 small molecules from the Molecular Libraries Small Molecule Repository (MLSMR). Results of fluorescent GTP-binding from the entire primary screen are summarized in the open access Pubchem database as required for projects conducted under the Roadmap Initiative (AID 757-761, 764). […] In total 1877 compounds/194,635 were identified as activators or inhibitors in the primary screen. On the order of 100-500 compounds were found active per GTPase target, enabling an unprecedented, comprehensive evaluation of small molecules active against various Ras-related GTPase family members. Here we report one compound active specifically on Cdc42 and structure activity relationships determined through chemical synthesis.
Multiplex analysis of small GTPases, were performed as we have described previously {Surviladze, 2009}. […] Flow cytometric light scatter and fluorescence emission at 530+/−20 nm (FL1) and 665+/−10 nm (FL8) were collected on a Cyan ADP flow cytometer (Beckman Coulter, Fullerton, Calif.). The resulting time-dependent data (one file per plate) were analyzed using IDLQuery software to determine the compound activity in each well. […] Gating based on FL8 emission distinguishes the beads coated with different proteins, and the median fluorescence per bead population was calculated. […]
For detection of GTP binding to small G-proteins we used bead-based multiplex flow cytometry assay {Surviladze, 2009}. […] Six individual GST-GTPases representative of Rho, Ras and Rab branches of the Ras-related GTPase family (Cdc42 wt, Rac1 wt, Rac1Q61L, Rab2 wt, Rab7 wt, and H-Ras wt) were first bound to GSH-beads of a particular fluorescence intensity. […]

The mark [2] stands for this setting: Table 5, R2 analogs, read-out: Cdc42 ACT EC50.
[3] abbreviates: Table 6, R3 analogs, read-out: Cdc42 ACT EC50.

Where two headings read alike, the source gives them in different places.

T1 sequence (P60953 whole entry): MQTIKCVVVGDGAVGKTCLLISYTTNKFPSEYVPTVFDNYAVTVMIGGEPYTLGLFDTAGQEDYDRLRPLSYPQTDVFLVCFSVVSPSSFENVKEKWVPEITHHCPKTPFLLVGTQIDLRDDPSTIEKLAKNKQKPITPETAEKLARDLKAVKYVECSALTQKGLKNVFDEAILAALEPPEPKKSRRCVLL
Chain of Cdc42 ACT (Cdc42Q61L) (P60953 whole entry Q61L): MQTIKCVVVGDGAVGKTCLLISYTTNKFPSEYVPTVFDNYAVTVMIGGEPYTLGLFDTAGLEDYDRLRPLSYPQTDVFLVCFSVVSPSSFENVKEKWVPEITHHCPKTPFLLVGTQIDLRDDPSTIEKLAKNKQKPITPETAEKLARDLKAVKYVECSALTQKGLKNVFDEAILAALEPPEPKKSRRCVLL

Consider `COc1ccc(C2CC(c3cccc(OC)c3)=NN2c2ccc(S(N)(=O)=O)cc2)cc1` (stereo not shown) [CID 44143698, 4-[5-(3-methoxyphenyl)-3-(4-methoxyphenyl)-3,4-dihydropyrazol-2-yl]benzenesulfonamide], for which, at Cdc42 WT (Table 5, R2 analogs), the EC50 came out at 1.5 µM and the Emax is 50%. Besides, on Cdc42 ACT (Cdc42Q61L) (setting [2]), the EC50 is 1.6 µM.
Turning to `COc1ccc(C2CC(c3cccs3)=NN2c2ccc(S(N)(=O)=O)cc2)cc1` (stereo not shown) [CID 44143712], the EC50 was found to be 2.9 µM on Cdc42 WT (Table 5, R2 analogs) and 4 µM on Cdc42 ACT (Cdc42Q61L). At Cdc42 WT (Table 5, R2 analogs), the Emax came out at 57%.
With `NS(=O)(=O)c1ccc(N2N=C(c3ccccc3)CC2c2ccc(Cl)cc2)cc1` (stereo not shown) [CID 13927311], on Cdc42 WT (Table 6, R3 analogs), the concentration for a half-maximal effect (EC50) was determined as 2.8 µM and the Emax amounted to 69%. Moreover, the concentration giving a half-maximal response (EC50) at Cdc42 ACT (Cdc42Q61L) (setting [3]) amounted to 3.6 µM.
Turning to `COc1ccc(C2=NN(c3ccc(S(N)(=O)=O)cc3)C(c3ccc(OC)cc3)C2)cc1` (stereo not shown) [CID 15201811], the EC50 on Cdc42 WT (Table 5, R2 analogs) is 2.6 µM; on Cdc42 ACT (Cdc42Q61L) (setting [2]), 2.5 µM. In addition, the Emax on Cdc42 WT (Table 5, R2 analogs) was found to be 38%.
`Cc1ccccc1C1CC(c2ccccc2)=NN1c1ccc(S(N)(=O)=O)cc1` (stereo not shown) [CID 44143704]: the 50% effective concentration (EC50) worked out at 16.6 µM on Cdc42 WT (Table 6, R3 analogs) and 13.6 µM at Cdc42 ACT (Cdc42Q61L) (setting [3]). The Emax on Cdc42 WT (Table 6, R3 analogs) amounted to 55%.
As for `COc1ccc(C2CC(C(C)(C)C)=NN2c2ccc(S(N)(=O)=O)cc2)cc1` (stereo not shown) [CID 44193701], the concentration giving a half-maximal response (EC50) on Cdc42 WT (Table 5, R2 analogs) is > 100 µM; at Cdc42 ACT (Cdc42Q61L) (setting [2]) it was > 100 µM. For the same compound, the Emax at Cdc42 WT (Table 5, R2 analogs) amounted to 33%.
Take `COc1ccc(C2CC(C)=NN2c2ccc(S(N)(=O)=O)cc2)cc1` (stereo not shown) [CID 14870296]: on Cdc42 WT (Table 5, R2 analogs), the EC50 is > 100 µM and the Emax amounted to 17%. At Cdc42 ACT (Cdc42Q61L) (setting [2]), the EC50 is > 100 µM.
As to `NS(=O)(=O)c1ccc(N2N=C(c3ccccc3)CC2c2cccc(Br)c2)cc1` (stereo not shown) [CID 44143703], the EC50 was determined as 3.3 µM at Cdc42 WT (Table 6, R3 analogs) and 3.7 µM at Cdc42 ACT (Cdc42Q61L) (setting [3]). For the same compound, on Cdc42 WT (Table 6, R3 analogs), the Emax was determined as 55%.
Take `COc1ccc(C2CC(c3ccccc3OC)=NN2c2ccc(S(N)(=O)=O)cc2)cc1` (stereo not shown) [CID 44143702]: on Cdc42 WT (Table 5, R2 analogs), the “Cdc42 WT Efficacy” value came to 59%, the concentration giving a half-maximal response (EC50) was 6 µM and the Emax stood at 59%. In addition, at Cdc42 ACT (Cdc42Q61L) (setting [2]), the EC50 came to 5.5 µM.
As to `O=C(O)c1cccnc1SCCc1ccccc1` [CID888706], the “Outcome of primary screening” value in test [1] is recorded as “activator”.
For the compound `NS(=O)(=O)c1ccc(N2N=C(c3ccccc3)CC2c2ccc(Br)cc2)cc1` (stereo not shown) [CID 13927312, 4-[3-(4-bromophenyl)-5-phenyl-3,4-dihydropyrazol-2-yl]benzene sulfonamide], at Cdc42 WT (Table 6, R3 analogs), the EC50 stood at 1.1 µM and the Emax was found to be 56%. Moreover, the EC50 at Cdc42 ACT (Cdc42Q61L) (setting [3]) is 1.7 µM.
For the compound `NS(=O)(=O)c1ccc(N2N=C(c3ccccc3)CC2c2ccccc2Br)cc1` (stereo not shown) [CID 44216862], the half-maximal effective concentration (EC50) at Cdc42 WT (Table 6, R3 analogs) is > 100 µM; at Cdc42 ACT (Cdc42Q61L) (setting [3]), > 100 µM.
Regarding `NS(=O)(=O)c1ccc(N2N=C(c3ccccc3)CC2c2ccccc2Cl)cc1` (stereo not shown) [CID 44193697], on Cdc42 WT (Table 6, R3 analogs), the EC50 was 7.2 µM and the Emax is 39%. Moreover, the EC50 at Cdc42 ACT (Cdc42Q61L) (setting [3]) was found to be 7.4 µM.
On to `NS(=O)(=O)c1ccc(N2N=C(c3ccccc3)CC2c2cccc(Cl)c2)cc1` (stereo not shown) [CID 44193696], for which the EC50 on Cdc42 WT (Table 6, R3 analogs) was 3.3 µM; on Cdc42 ACT (Cdc42Q61L) (setting [3]), 3.6 µM. Besides, the Emax on Cdc42 WT (Table 6, R3 analogs) turned out to be 64%.
For `NS(=O)(=O)c1ccc(N2N=C(c3ccccc3)CC2c2cccc(F)c2)cc1` (stereo not shown) [CID 12005853] the same measures were 4.9 µM, 9.6 µM and 71%.
Regarding `COc1cccc(C2CC(c3ccccc3)=NN2c2ccc(S(N)(=O)=O)cc2)c1` (stereo not shown) [CID 44143701], the concentration for a half-maximal effect (EC50) at Cdc42 WT (Table 6, R3 analogs) is 4.8 µM; on Cdc42 ACT (Cdc42Q61L) (setting [3]), 4.3 µM. The Emax at Cdc42 WT (Table 6, R3 analogs) is 53%.
For `NS(=O)(=O)c1ccc(N2N=C(c3ccccc3)CC2c2ccccc2)cc1` (stereo not shown) [CID 2837695] the same measures were 31.6 µM, 16.8 µM and 56%.
As to `COc1ccc(C2CC(c3ccsc3)=NN2c2ccc(S(N)(=O)=O)cc2)cc1` (stereo not shown) [CID 44143713], on Cdc42 WT (Table 5, R2 analogs), the half-maximal effective concentration (EC50) was determined as 7.3 µM and the Emax was found to be 47%. The concentration for a half-maximal effect (EC50) on Cdc42 ACT (Cdc42Q61L) (setting [2]) was 7.3 µM.
In the case of `COc1ccc(C2CC(c3ccccc3)=NN2c2ccc(S(N)(=O)=O)cc2)cc1OC` (stereo not shown) [CID 2971684], on Cdc42 WT (Table 6, R3 analogs), the EC50 came to 5.7 µM and the Emax was determined as 75%. The same compound came in with an EC50 at Cdc42 ACT (Cdc42Q61L) of 6.1 µM.
Regarding `COc1ccccc1C1CC(c2ccccc2)=NN1c1ccc(S(N)(=O)=O)cc1` (stereo not shown) [CID 42628035], on Cdc42 WT (Table 6, R3 analogs), the concentration giving a half-maximal response (EC50) was found to be 22.5 µM and the Emax was found to be 45%. Further, the concentration for a half-maximal effect (EC50) at Cdc42 ACT (Cdc42Q61L) (setting [3]) worked out at 78.9 µM.

For orientation: EC50 means the midpoint of the concentration-response curve.

These data come from US9642835B2, “Modulators of GTPase and use in relevant treatment” (STC.UNM, priority 2010, dated 2017).
